PubChem BioAssay (NCI)
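These data come from cells grown in 96-well plates and exposed to compound for 48 hours at five concentrations. Definition used: TGI = concentration required for complete inhibition of growth.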

Tests used:
Experiment in all cases: DTP human tumour cell line panel, 48 h
A498 renal = tested on: A498 renal
CAKI-1 renal = tested on: CAKI-1 renal
DLD-1 colon = tested on: DLD-1 colon
DMS 114 small cell lung = tested on: DMS 114 small cell lung
DMS 273 small cell lung = tested on: DMS 273 small cell lung
KM20L2 colon = tested on: KM20L2 colon
LXFL 529 NSCLC = tested on: LXFL 529 NSCLC
M19-MEL melanoma = tested on: M19-MEL melanoma
NCI-H226 lung = tested on: NCI-H226 lung
NCI-H460 lung = tested on: NCI-H460 lung
SF-268 CNS = tested on: SF-268 CNS
SK-OV-3 ovarian = tested on: SK-OV-3 ovarian
SN12C renal = tested on: SN12C renal
SNB-78 CNS = tested on: SNB-78 CNS
TK-10 renal = tested on: TK-10 renal
XF 498 CNS = tested on: XF 498 CNS
HOP-18 NSCLC = tested on: HOP-18 NSCLC
HS 578T breast = tested on: HS 578T breast
T-47D breast = tested on: T-47D breast

| Structure (SMILES) | TGI (A498 renal) [µM] | TGI (CAKI-1 renal) [µM] | TGI (DLD-1 colon) [µM] | TGI (DMS 114 small cell lung) [µM] | TGI (DMS 273 small cell lung) [µM] | TGI (KM20L2 colon) [µM] | TGI (LXFL 529 NSCLC) [µM] | TGI (M19-MEL melanoma) [µM] | TGI (NCI-H226 lung) [µM] | TGI (NCI-H460 lung) [µM] | TGI (SF-268 CNS) [µM] | TGI (SK-OV-3 ovarian) [µM] | TGI (SN12C renal) [µM] | TGI (SNB-78 CNS) [µM] | TGI (TK-10 renal) [µM] | TGI (XF 498 CNS) [µM] | TGI (HOP-18 NSCLC) [µM] | TGI (HS 578T breast) [µM] | TGI (T-47D breast) [µM] |
| --- | --- | --- | --- | --- | --- | --- | --- | --- | --- | --- | --- | --- | --- | --- | --- | --- | --- | --- | --- |
| CN1c2ccccc2N(C(=O)c2ccc(Cl)cc2)C(CC(=O)O)c2cccn21 (stereo not drawn) | > 100 | > 100 | > 100 | > 100 | > 100 | > 100 | > 100 | > 100 | > 100 | > 100 | > 100 | > 100 | > 100 | > 100 | > 100 | > 100 |  |  |  |
| N#C/C(c1nc2ccccc2[nH]1)=c1\s/c(=C/c2ccc(Cl)cc2)c(=O)n1-c1ccccc1 | > 100 | > 100 | > 100 | > 100 | > 100 | > 100 | > 100 | > 100 | > 100 | > 100 | > 100 | > 100 | > 100 |  | > 100 | > 100 | > 100 |  |  |
| Nc1nc(SCc2ccc([N+](=O)[O-])cc2)nc2c1ncn2C1OC(CO)C(O)C1O (stereo not drawn) | > 100 |  | > 100 | > 100 | > 100 | > 100 | > 100 | > 100 | > 100 | > 100 | > 100 |  | > 100 | > 100 | > 100 | > 100 |  |  |  |
| CC(C)CC(NC(=O)OC(C)(C)C)C(=O)Nc1ccc(Nc2nc(F)nc(-c3c4ccccc4c4n3CCS4)n2)cc1 (stereo not drawn) | 45.8 | 33.1 | 36.8 | 37.5 | 30.6 | 32.3 | 35.2 |  |  | 36.5 | 61.3 | 32.9 | 43.5 | 44.3 | 57.5 | 42.3 | 50.6 |  |  |
| Cc1ccc([N+](=O)[O-])cc1NC(=O)/C(=N/NC(=S)NN)C1SC(=S)NC1=O (stereo not drawn) | > 100 | > 100 | > 100 | > 100 | > 100 | > 100 | > 100 |  | > 100 | > 100 | > 100 | > 100 | > 100 | > 100 | > 100 | > 100 | > 100 |  |  |
| COC(=O)C(C#CCCCCC#CC(NC(=O)OCc1ccccc1)(C(=O)OC)C(F)(F)F)(NC(=O)OCc1ccccc1)C(F)(F)F (stereo not drawn) | > 100 | > 100 | > 100 | > 100 |  | > 100 | > 100 | > 100 | > 100 | > 100 | > 100 | > 100 | > 100 | > 100 | > 100 |  | > 100 |  |  |
| CCOc1ccc(/C(Cl)=C(\C=O)c2ccc(OC)c(OC)c2)cc1OCC |  | > 100 | > 100 | 66.1 | > 100 | > 100 | > 100 | > 100 | > 100 | > 100 | > 100 | > 100 | > 100 | > 100 | > 100 | > 100 | > 100 |  |  |
| Nc1ccc2c(SCc3ccc([N+](=O)[O-])cc3)c3ccccc3nc2c1 | 49.2 | 28.7 | 6.04 | 29.8 | 39.2 | 31.6 | 18.5 | 26.5 | 38.3 | 47.2 | 30.8 | 42.7 | 34 | 63.7 | 26.5 | 27.7 | 26.5 | 48 | 22.6 |
| COc1ccc(N=Cc2ccc(N(CCC#N)S(=O)(=O)c3ccccc3)cc2)cc1 | > 100 | > 100 | > 100 | > 100 | > 100 | > 100 | > 100 | > 100 | > 100 | > 100 | > 100 | > 100 | > 100 | > 100 | > 100 | > 100 | > 100 |  |  |
| CN(C)C(=S)/N=c1\ssc(=S)n1Cc1cccnc1 | > 100 | > 100 | > 100 | 3.89 | > 100 | 4.27 | > 100 | > 46.6 | > 100 | > 95.7 | > 100 | > 81.1 | > 100 | > 100 | > 100 | 47.1 | > 100 | > 100 | > 100 |
